Consider 1 molecule from patent US11420975B2, “Substituted imidazo[1,5-a]pyrazines as Bruton's tyrosine kinase inhibitors” (TRANSTHERA SCIENCES (NANJING), INC., priority 2018, dated 2022).

The subject of one data set is OCI-LY10. The data set can be described thus: In vitro tumor cell proliferation inhibition, OCI-LY10 (CellTiter-Glo). The data set is classed as cell-based. Conditions: Homo sapiens; OCI-LY10 cells, 72 h. As for the experimental part: (1) Method • The tumor cell line (TMD-8/OCY-LY10) was suspended in RPMI1640+FBS10% and cultured in an incubator (37° C., 5% CO2). Cells were passaged periodically, and cells at logarithmic growth phase were collected for plating. • Cell staining was performed with trypan blue and viable cells were counted. • Cell concentration was adjusted to 7000 cells/well with medium. • 90 μL of cell suspension was added to a 96-well plate and cell-free culture medium was added to the blank control wells. • Cells in the 96-well plate were incubated overnight in an incubator (37° C., 5% CO2, 100% relative humidity). • Preparation of 400× compound storage plates: test compounds and reference drug were each dissolved in DMSO and 3× diluted from the highest concentration (400 μM) to the lowest concentration (0.61 μM). • Preparation of 10× compound working solutions: 78 μL of cell culture medium was added to a V-bottom 96-well plate, and 2 μL of the compound was pipetted from the 400× compound storage plate into the 96-well plate. Vehicle control wells and blank control wells were added with 2 μL of DMSO. […] Inhibition rates of compounds at different concentrations were calculated in Excel, followed by plotting the inhibition curves and calculating IC50 values with GraphPad Prism.

Data set [1] is described as follows: Pharmacokinetic study in male beagle dogs, intragastric. The conditions noted are these: dog, 5 mg/kg. Format: in vivo. As for the experimental part:
Three adult male beagle dogs were fasted overnight before test. The test drugs were each suspended in a solution of 0.5% methylcellulose (MC) and 0.1% SDS in deionized water (w/w/v), and the suspension, each at a concentration of 1 mg/mL, was administered intragastrically at 5 mL/kg. Blood was collected 15 min, 30 min, 1 h, 2 h, 4 h, 6 h, 8 h and 24 h after administration. Animals were lightly anesthetized with chloral hydrate, and approximately 0.5 mL of whole blood was collected from the forelimb vein using a glass blood collection tube and placed in a heparin anticoagulant tube. The sample was centrifuged at 4° C./4200 rpm for 5 min. All plasma samples were stored in a refrigerator at −80±15° C. prior to analysis. An LC-MS/MS (Waters I Class UPLC-Xevo TQD tandem mass spectrometry) assay for the compounds was established prior to sample analysis. The collected plasma was quantitatively analyzed, plasma concentration-time data of animals were analyzed using WinNonlin (professional edition, version 5.2) software, a non-compartmental model was used for concentration analysis, and the pharmacokinetic parameters of the test compounds were calculated.

Data set [2] is described as follows: Pharmacokinetic study in male SD rats, intragastric. Conditions: rat, 5 mg/kg. The data set is classed as in vivo. The protocol:
Male SD rats were fasted overnight before test. The test drugs were each suspended in a solution of 0.5% methylcellulose (MC) and 0.1% SDS in deionized water (w/w/v), and the suspension, each at a concentration of 1 mg/mL, was administered intragastrically at 5 mL/kg. At 15 min, 30 min, 1 h, 2 h, 4 h, 6 h, 8 h and 24 h after administration, approximately 0.4 mL of whole blood was collected from the orbital venous plexus of the animals and then placed in heparin anticoagulant tubes. Three animals were sampled at each time point and then put to death, and thus sample collection was completed on different individuals. The whole blood sample would be centrifuged within 15 min and centrifuged at 4° C./4200 rpm for 5 min. All plasma samples were stored in a refrigerator at −80±15° C. prior to analysis. An LC-MS/MS (Waters I Class UPLC-Xevo TQD tandem mass spectrometry) assay for the compounds was established prior to sample analysis. The collected plasma was quantitatively analyzed, plasma concentration-time data of animals were analyzed using WinNonlin (professional edition, version 5.2) software, a non-compartmental model was used for concentration analysis, and the pharmacokinetic parameters of the test compounds were calculated.

Another data set has as its target BTK(wt) (Homo sapiens (Human), UniProt Q06187). The data set can be described thus: pBTK inhibition in HEK293 cells transfected with BTK(wt) (ELISA). The data set is classed as cell-based. The conditions noted are these: 2 h. The protocol:
For positive (high signal) controls, cells were treated with 0.5% DMSO alone. […] The absorbance was read at 450 nm. • Based on the absorbance readings of the positive and negative control values, the % inhibition value was calculated according to the following formula: (% INH=((positive control−sample)/(positive control−negative control))×100. • The Z′ value was calculated based on the following formula: 1−((3×standard deviation of positive+3×standard deviation of negative)/(mean positive−mean negative)). • The […] was plotted using GraphPad Prism. • IC50 values were determined after sigmoidal dose-response curve fitting.

Sequence of BTK(wt) (Q06187 whole entry): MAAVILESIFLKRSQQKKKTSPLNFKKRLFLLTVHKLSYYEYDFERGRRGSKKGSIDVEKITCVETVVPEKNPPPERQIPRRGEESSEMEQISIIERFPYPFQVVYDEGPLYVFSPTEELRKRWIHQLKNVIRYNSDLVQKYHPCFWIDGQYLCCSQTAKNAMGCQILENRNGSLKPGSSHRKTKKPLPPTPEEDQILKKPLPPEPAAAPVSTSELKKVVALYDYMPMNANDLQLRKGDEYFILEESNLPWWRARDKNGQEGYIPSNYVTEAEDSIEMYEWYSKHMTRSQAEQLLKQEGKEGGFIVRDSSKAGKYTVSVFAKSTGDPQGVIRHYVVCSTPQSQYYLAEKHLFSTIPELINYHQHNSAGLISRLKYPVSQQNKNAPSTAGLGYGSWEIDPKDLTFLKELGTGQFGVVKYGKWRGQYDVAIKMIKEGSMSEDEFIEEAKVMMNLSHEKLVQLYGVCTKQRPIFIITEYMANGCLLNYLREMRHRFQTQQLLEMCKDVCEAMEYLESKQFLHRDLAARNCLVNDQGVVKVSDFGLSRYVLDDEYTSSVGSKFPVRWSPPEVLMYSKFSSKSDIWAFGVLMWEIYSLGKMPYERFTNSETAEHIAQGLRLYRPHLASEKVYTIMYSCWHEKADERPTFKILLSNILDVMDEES

As to `Nc1nccn2c(C34CCC(NC(=O)CN5CCOCC5)(CC3)C4)nc(-c3ccc(C(=O)Nc4cc(C(F)(F)F)ccn4)cc3)c12` [Compound A-10-10, 4-(8-amino-3-(4-(2-morpholinoacetamido)bicyclo[2.2.1]heptan-1-yl)imidazo[1,5-a]pyrazin-1-yl)-N-(4-(trifluoromethyl)pyridin-2-yl)benzamide], the IC50 with OCI-LY10 was 10.3 nM; against BTK(wt), 77 nM. The AUC0-INF was 14867 ng·h/mL in data set [1] (p.o.) and 73318 ng·h/mL in data set [2] (p.o.). In addition, the Cmax in data set [1] (p.o.) is 641 ng/mL; in data set [1] (male, beagle, plasma, po, p.o., read-out: Cmax), 641 ng/mL; in data set [2] (male, SD, plasma, po, p.o., read-out: Cmax), 8320 ng/mL; in data set [2] (p.o.) it was 8323 ng/mL. Moreover, the total exposure AUC(0-inf) worked out at 14900 ng·h/mL in data set [1] (male, beagle, plasma, po) and 73300 ng·h/mL in data set [2] (male, SD, plasma, po). In addition, the Tmax in data set [1] (male, beagle, plasma, po) came out at 8 h; in data set [2] (male, SD, plasma, po), 2 h. The half-life in data set [1] (male, beagle, plasma, po) was 14.2 h; in data set [2] (male, SD, plasma, po), 3.74 h.
